According to ChEMBL document CHEMBL1201862, “PubChem BioAssay data set” (2004):
Counter-ions that a name gives are not always drawn.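 1) Cells in 96-well plates. 2) Compound, 48 h, 5 concentrations. 3) Linear interpolation between surrounding doses. 4) Unreached endpoint = highest concentration. The concentration for 50% growth inhibition is given as GI50.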 The source made the active and inactive calls. No stated cut-off is given here; in the data, active = GI50 up to about 1.1 µM and inactive = higher.

What was measured:
Test in all cases: inhibition of tumour cell growth, NCI panel, 48 h
COLO 205 = tested on: COLO 205
OVCAR-8 = tested on: OVCAR-8
UACC-257 = tested on: UACC-257
A498 = tested on: A498
A549 = tested on: A549
SN12C = tested on: SN12C
MOLT-4 = tested on: MOLT-4
SW-620 = tested on: SW-620
NCI-H226 = tested on: NCI-H226
BT-549 = tested on: BT-549
CCRF-CEM = tested on: CCRF-CEM
SR = tested on: SR
M14 = tested on: M14
SF-268 = tested on: SF-268
RPMI-8226 = tested on: RPMI-8226
MDA-N = tested on: MDA-N
SK-MEL-5 = tested on: SK-MEL-5
SK-MEL-2 = tested on: SK-MEL-2
HL-60 = tested on: HL-60
LOX IMVI = tested on: LOX IMVI

Row | Structure (SMILES) | GI50 (COLO 205) | GI50 (OVCAR-8) | GI50 (UACC-257) | GI50 (A498) | GI50 (A549) | GI50 (SN12C) | GI50 (MOLT-4) | GI50 (SW-620) | GI50 (NCI-H226) | GI50 (BT-549) | GI50 (CCRF-CEM) | GI50 (SR) | GI50 (M14) | GI50 (SF-268) | GI50 (RPMI-8226) | GI50 (MDA-N) | GI50 (SK-MEL-5) | GI50 (SK-MEL-2) | GI50 (HL-60) | GI50 (LOX IMVI)
1 | Cc1ccc(/N=N/C(=N/c2ccccc2)c2ccc(N(CCC#N)CCC#N)cc2)cc1 | 21.7 µM (inactive) | 26.1 µM (inactive) | 19.3 µM (inactive) | 45.4 µM (inactive) | 26.7 µM (inactive) | 31.9 µM (inactive) | 43.7 µM (inactive) | 45.6 µM (inactive) | 27.7 µM (inactive) | 13.2 µM (inactive) | 35.6 µM (inactive) | 27.9 µM (inactive) | 33.4 µM (inactive) | 40.3 µM (inactive) | 39 µM (inactive) | 31.6 µM (inactive) | 22.9 µM (inactive) | 19.7 µM (inactive) |  | 
2 | FC(F)(F)c1ccc2nc(Sc3ccc4ccccc4c3)cnc2c1 | 75 µM (inactive) | > 100 µM (inactive) | 43.8 µM (inactive) | 28.6 µM (inactive) | > 100 µM (inactive) | 73.8 µM (inactive) | 24.5 µM (inactive) | 77.4 µM (inactive) | 87.9 µM (inactive) | > 100 µM (inactive) | 24.4 µM (inactive) |  | 87.9 µM (inactive) | > 100 µM (inactive) |  | 38.5 µM (inactive) | 28.1 µM (inactive) | 23.1 µM (inactive) | 31.6 µM (inactive) | 44.1 µM (inactive)
3 | O=[N+]([O-])c1ccc(/C=N/n2c(CO)nc3ccccc32)o1 | 3.1 µM (inactive) | 10.3 µM (inactive) | 2.44 µM (inactive) | 17.9 µM (inactive) | 10.5 µM (inactive) | 5.35 µM (inactive) | 1.1 µM (active) | 5.71 µM (inactive) | 15.1 µM (inactive) | 13.6 µM (inactive) | 3.78 µM (inactive) |  | 4.17 µM (inactive) | 10.4 µM (inactive) | 3.43 µM (inactive) | 3.33 µM (inactive) | 2.14 µM (inactive) | 4.67 µM (inactive) | 2.3 µM (inactive) | 2.92 µM (inactive)
4 | OC(CNc1ccccn1)c1ccccc1 (stereo unspecified) [PHENYRAMIDOL HYDROCHLORIDE] | > 100 µM (inactive) | > 100 µM (inactive) | > 100 µM (inactive) | > 100 µM (inactive) | > 100 µM (inactive) | 63.1 µM (inactive) | > 100 µM (inactive) | > 100 µM (inactive) | > 100 µM (inactive) | > 100 µM (inactive) | > 100 µM (inactive) |  | > 100 µM (inactive) | > 100 µM (inactive) | 90.2 µM (inactive) | > 100 µM (inactive) | > 100 µM (inactive) | > 100 µM (inactive) | > 100 µM (inactive) | > 100 µM (inactive)
5 | NC1=CN(CCCO)C2=N/C(=C\c3ccccc3)C(=O)N12 | > 100 µM (inactive) | > 100 µM (inactive) | > 100 µM (inactive) | 85.7 µM (inactive) | > 100 µM (inactive) | > 100 µM (inactive) | > 100 µM (inactive) | > 100 µM (inactive) | > 100 µM (inactive) | > 100 µM (inactive) | > 100 µM (inactive) |  | > 100 µM (inactive) | > 100 µM (inactive) | 83.4 µM (inactive) | > 100 µM (inactive) | > 100 µM (inactive) | > 100 µM (inactive) | 42.9 µM (inactive) | > 100 µM (inactive)
6 | CC[n+]1[b-](C(C)(C)C)n(/N=C/C(C)(C)C)[b-](C(C)(C)C)[n+]1CC | > 100 µM (inactive) | > 100 µM (inactive) | > 100 µM (inactive) |  | > 100 µM (inactive) | > 100 µM (inactive) | > 100 µM (inactive) | > 100 µM (inactive) | > 100 µM (inactive) | > 100 µM (inactive) | 66.1 µM (inactive) | > 100 µM (inactive) | > 100 µM (inactive) | > 100 µM (inactive) |  | > 100 µM (inactive) | > 100 µM (inactive) | 70.3 µM (inactive) |  | > 100 µM (inactive)
7 | CC(=O)OCc1ccc2oc(=O)c(C(=O)Oc3cccc(Cl)c3)cc2c1 | 30.3 µM (inactive) | > 100 µM (inactive) | 62.7 µM (inactive) |  | > 100 µM (inactive) | 54.5 µM (inactive) | 90.2 µM (inactive) | 56.4 µM (inactive) | > 100 µM (inactive) | > 100 µM (inactive) | > 100 µM (inactive) | 44.8 µM (inactive) | 34.6 µM (inactive) | > 100 µM (inactive) | > 100 µM (inactive) | > 100 µM (inactive) | > 100 µM (inactive) | 82.4 µM (inactive) |  | > 100 µM (inactive)
8 | COc1ccc(C(F)(F)F)cc1NC(=O)O/N=C(/Cl)C(C)C | 2.03 µM (inactive) | 21.9 µM (inactive) | 19.7 µM (inactive) | 28.9 µM (inactive) | 20.8 µM (inactive) | 16.2 µM (inactive) | 2.05 µM (inactive) | 3.33 µM (inactive) | 17.7 µM (inactive) | 20.7 µM (inactive) | 2.24 µM (inactive) |  | 16.9 µM (inactive) | 23.8 µM (inactive) | 1.71 µM (inactive) | 16.3 µM (inactive) | 10.7 µM (inactive) | 18.8 µM (inactive) | 2.76 µM (inactive) | 5.27 µM (inactive)
9 | COc1cc(/C=C2/C[C@H]3[C@@H]4CC=C5C[C@@H](OC(C)=O)CC[C@]5(C)[C@H]4CC[C@]3(C)NC2=O)cc(OC)c1OC | > 100 µM (inactive) | 27.8 µM (inactive) | 26.5 µM (inactive) |  | 18 µM (inactive) | 29.6 µM (inactive) | 16.9 µM (inactive) | 54 µM (inactive) |  | 22.5 µM (inactive) | 49.4 µM (inactive) | 47.6 µM (inactive) | 36.5 µM (inactive) | 24 µM (inactive) |  | 42.7 µM (inactive) | 22.9 µM (inactive) | 18.7 µM (inactive) |  | 38.7 µM (inactive)
10 | CCc1cn(C2CC(CO)C(CO)S2)c(=O)[nH]c1=O (stereo unspecified) | > 100 µM (inactive) | > 100 µM (inactive) | > 100 µM (inactive) | > 100 µM (inactive) | > 100 µM (inactive) | > 100 µM (inactive) | > 100 µM (inactive) | > 100 µM (inactive) | > 100 µM (inactive) | > 100 µM (inactive) | > 100 µM (inactive) |  | > 100 µM (inactive) | > 100 µM (inactive) | > 100 µM (inactive) | > 100 µM (inactive) | > 100 µM (inactive) | > 100 µM (inactive) | > 100 µM (inactive) | > 100 µM (inactive)
11 | Nc1ccc(-c2nc3cc(F)ccc3s2)cc1I | 2.45 µM (inactive) | 19.1 µM (inactive) | 49.3 µM (inactive) | 15.8 µM (inactive) | 23.6 µM (inactive) | 20.9 µM (inactive) | > 100 µM (inactive) | 27.5 µM (inactive) | 0.979 µM (active) | 13.5 µM (inactive) | > 100 µM (inactive) |  | 39.3 µM (inactive) | 16.5 µM (inactive) | > 100 µM (inactive) | > 100 µM (inactive) | 21.7 µM (inactive) | 20.2 µM (inactive) | > 100 µM (inactive) | 39.5 µM (inactive)
